Results reported in paper PMC4465272 (eNeuro, 2015).
Entries after “also recorded” stand apart in the source; their conditions may differ.

Legend:
[1] = system: human GABAB receptor; settings: cited from earlier work
[2] = system: N-type CaV (CaV2.2) current in sensory neurons; settings: cited from earlier work
[3] = system: GABAB receptors expressed in Xenopus laevis oocytes; settings: cited from earlier work
[4] = system: eEPSCs in the dorsal horn of rat spinal cord; settings: cited from earlier work
[5] = system: rat α9α10 nAChRs; format: cell-based
[6] = system: nAChRs subtypes containing the α3 subunit; settings: cited from earlier work
[7] = system: animal pain models; settings: in vivo; cited from earlier work
[8] = system: CaV current in rat sensory neurons (DRG); assay: cells; format: cell-based, rat (adult male Sprague Dawley)
[9] = system: α9α10 nAChRs; settings: cited from earlier work

In the case of Vc1.1, the “effect on binding of [^3H]CGP-54626, a specific competitive antagonist” value [1] is listed as “failed to block binding; also recorded: Neither Vc1.1 or RgIA were able to prevent the binding”, the “GABAB dependence of N-type CaV current inhibition” value [2] is listed as “requires functional GABAB receptors” and the “reversibility of CaV current block” value [2] is listed as “irreversible”. For the same substance, the “sensory neurons with CaV current inhibited” value [2] was ~75%, the “activation of GABAB receptors” value [3] was “do not activate GABAB receptors; also recorded: failed to activate GABAB receptors” and the “effect on eEPSCs / EPSPs in dorsal horn” value [4] was “does not affect excitatory neurotransmitter release; also recorded: no inhibition of EPSPs; also recorded: failed to affect”. For the same substance, the “block of ACh-induced current” value [5] was 85 ± 13%, the “antagonism of nAChRs containing the α3 subunit” value [6] was “weakly antagonizes” and the “antinociceptive / analgesic effect” value [7] was “antinociceptive effects”. For the same substance, the “CaV current inhibition in the neuron with the largest Vc1.1 and RgIA response” value [8] was 41%, the “CaV current inhibition in the neuron with the largest baclofen response” value [8] was 3.5% and the “average CaV current inhibition in neurons with baclofen responses of 20 − 24%” value [8] was 4.3 ± 6.6%. The “enhancement of CaV current inhibition by BSA” value [8] was “no enhancement of the CaV current inhibition was observed”, the “inhibition of CaV current in example neuron” value [8] was 40% and the “postpulse CaV current inhibition” value [8] was 6.2 ± 12.5%. The “prepulse CaV current inhibition” value [8] was 6.5 ± 12.7%, the “recovery τ from CaV current block” value [8] was 0.5 ± 0.2 min and the “reversibility of CaV current block” value [8] was “readily reversible; also recorded: almost full recovery from inhibition”. The “voltage dependence of CaV current inhibition” value [8] was “not voltage-dependent”, the “average CaV current inhibition (as summarised in discussion)” value ([8]; 1 µM) was 7% and the “average effect on CaV current (in words)” value ([8]; 1 µM) was “only minimal inhibition”. The “neurons responding with CaV current inhibition >10%” value ([8]; 1 µM) was 19% and the “antagonism of α9α10 nAChRs” value [9] was “potent antagonists”.
